Assays:
Format in all cases: biochemical
PKR(G332S) = PKR(G332S) (Homo sapiens, UniProt P30613, G332S); assay: Luminescence Assay Protocol (Kinase Glo Plus), PKR(G332S/with FBP); details: PKRG332S, with FBP; for activation at 1.54 µM: compound 1.54 μM, read-out: C - AC50 LUM KGP FBP % Fold @ 1.54 μM mean; for AC50: gmean, read-out: A - AC50 LUM KGP FBP AC50 μM gmean; for Emax: highest % fold increase at any concentration, read-out: B - AC50 LUM KGP FBP MAX % FOLD mean
Summary of the method: (§1)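 Enzyme (wt 0.8 nM, R510Q 0.8 nM, G332S 10 nM) was preincubated 30 min at RT with compound and 100 μM PEP in Tris/KCl/MgCl2 buffer, then started with 100 μM ADP, plus 30 μM FBP for G332S. Luminescence was read after 45 min at RT. AC50 came from a four-parameter fit of % fold over DMSO across 42.5 μM–2.2 nM.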

PKR(R510Q) = PKR(R510Q) (Homo sapiens, UniProt P30613, R510Q); assay: Luminescence Assay Protocol (Kinase Glo Plus), PKR(R510Q/without FBP); details: PKRR510Q, without FBP; for activation at 1.54 µM: compound 1.54 μM, read-out: F - AC50 LUM KGP woFBP % Fold @ 1.54 μM mean; for AC50: gmean, read-out: D - AC50 LUM KGP woFBP AC50 μM gmean; for Emax: highest % fold increase at any concentration, read-out: E - AC50 LUM KGP woFBP MAX % FOLD mean
Summary of the method: as §1

PKR(wt) = PKR(wt) (Homo sapiens, UniProt P30613); assay: Luminescence Assay Protocol (Kinase Glo Plus), PKR(Wt/without FBP); details: without FBP; for activation at 1.54 µM: compound 1.54 μM, read-out: I - AC50 LUM KGP woFBP % Fold @ 1.54 μM mean; for AC50: gmean, read-out: G - AC50 LUM KGP woFBP AC50 μM gmean; for Emax: highest % fold increase at any concentration, read-out: H - AC50 LUM KGP woFBP MAX % FOLD mean
Summary of the method: as §1

Chain of PKR(wt) (P30613 whole entry): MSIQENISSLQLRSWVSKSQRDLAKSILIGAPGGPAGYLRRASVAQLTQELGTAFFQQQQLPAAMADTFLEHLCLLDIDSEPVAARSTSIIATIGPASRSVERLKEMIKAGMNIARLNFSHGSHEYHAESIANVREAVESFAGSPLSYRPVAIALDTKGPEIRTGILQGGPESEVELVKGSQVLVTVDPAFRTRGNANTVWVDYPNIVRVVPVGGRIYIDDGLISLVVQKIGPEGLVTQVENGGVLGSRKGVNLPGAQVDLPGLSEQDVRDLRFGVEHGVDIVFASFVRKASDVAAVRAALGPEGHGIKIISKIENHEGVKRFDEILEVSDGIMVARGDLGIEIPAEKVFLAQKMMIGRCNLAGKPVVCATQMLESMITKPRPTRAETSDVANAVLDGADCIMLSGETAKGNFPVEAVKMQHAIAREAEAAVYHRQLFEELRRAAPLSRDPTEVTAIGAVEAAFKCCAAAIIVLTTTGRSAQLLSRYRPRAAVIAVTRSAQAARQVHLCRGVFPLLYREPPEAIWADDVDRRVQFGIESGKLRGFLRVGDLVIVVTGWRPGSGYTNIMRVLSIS
Chain of PKR(R510Q) (P30613 whole entry R510Q): as the sequence (P30613 whole entry) above, with R510Q counted along it
Chain of PKR(G332S) (P30613 whole entry G332S): as the sequence (P30613 whole entry) above, with G332S counted along it

Row | SMILES | activation at 1.54 µM (PKR(G332S)) [%] | AC50 (PKR(G332S)) [µM] | Emax (PKR(G332S)) [%] | activation at 1.54 µM (PKR(R510Q)) [%] | AC50 (PKR(R510Q)) [µM] | Emax (PKR(R510Q)) [%] | activation at 1.54 µM (PKR(wt)) [%] | AC50 (PKR(wt)) [µM] | Emax (PKR(wt)) [%]
1 | COCC1(C(=O)N2CC3=C(C2)CN(S(=O)(=O)c2ccc4c(c2)NCCO4)C3)CC1 [Example 36, (5-((3,4-dihydro-2H-benzo[b][1,4]oxazin-6-yl)sulfonyl)-3,4,5,6-tetrahydropyrrolo[3,4-c]pyrrol-2(1H)-yl)(1-(methoxymethyl)cyclopropyl)methanone] | 75 to 250 | > 40 | 75 to 250 | 75 to 250 | 1 to 40 | 75 to 250 | 75 to 250 | 0.1 to 1 | 75 to 250
2 | CC(C)(CO)C(=O)N1CC2=C(C1)CN(S(=O)(=O)c1ccc3c(c1)NCCO3)C2 [Example 37, 1-(5-((3,4-dihydro-2H-benzo[b][1,4]oxazin-6-yl)sulfonyl)-3,4,5,6-tetrahydropyrrolo[3,4-c]pyrrol-2(1H)-yl)-3-hydroxy-2,2-dimethylpropan-1-one] | 75 to 250 | > 40 | 75 to 250 | 250 to 500 | ≤ 0.1 | 250 to 500 | 75 to 250 | 0.1 to 1 | 75 to 250
3 | O=C(C1CCOC1)N1CC2=C(C1)CN(S(=O)(=O)c1ccc3c(c1)NCCO3)C2 (stereo not drawn) [Example 39, (5-((3,4-dihydro-2H-benzo[b][1,4]oxazin-6-yl)sulfonyl)-3,4,5,6-tetrahydropyrrolo[3,4-c]pyrrol-2(1H)-yl)(tetrahydrofuran-3-yl)methanone] | 75 to 250 | ≤ 0.1 | 75 to 250 | 250 to 500 | 0.1 to 1 | 250 to 500 | 250 to 500 | 0.1 to 1 | 250 to 500
4 | CN1CCOc2ccc(S(=O)(=O)N3CC4=C(CN(C(=O)C5CCOC5)C4)C3)cc21 (stereo not drawn) [Example 47, (5-((4-methyl-3,4-dihydro-2H-benzo[b][1,4]oxazin-6-yl)sulfonyl)-3,4,5,6-tetrahydropyrrolo[3,4-c]pyrrol-2(1H)-yl)(tetrahydrofuran-3-yl)methanone] | 75 to 250 | > 40 | 75 to 250 | 75 to 250 | 1 to 40 | 250 to 500 | 75 to 250 | 0.1 to 1 | 75 to 250
5 | O=C(C(CO)c1ccccc1)N1CC2=C(C1)CN(S(=O)(=O)c1ccc(OC(F)F)cc1)C2 (stereo not drawn) [Example 49, 1-(5-((4-(difluoromethoxy)phenyl)sulfonyl)-3,4,5,6-tetrahydropyrrolo[3,4-c]pyrrol-2(1H)-yl)-3-hydroxy-2-phenylpropan-1-one] | 75 to 250 | ≤ 0.1 | 75 to 250 | 250 to 500 | ≤ 0.1 | 250 to 500 | 250 to 500 | ≤ 0.1 | 250 to 500
6 | O=C([C@H](CO)c1ccccc1)N1CC2=C(C1)CN(S(=O)(=O)c1cccnc1)C2 [Example 50, (2S)-3-hydroxy-2-phenyl-1-[5-(pyridine-3-sulfonyl)-1H,2H,3H,4H,5H,6H-pyrrolo[3,4-c]pyrrol-2-yl]propan-1-one] | 75 to 250 | 0.1 to 1 | 75 to 250 | 250 to 500 | 0.1 to 1 | 250 to 500 | 75 to 250 | 0.1 to 1 | 250 to 500
7 | O=C([C@H](CO)c1ccccc1)N1CC2=C(C1)CN(S(=O)(=O)c1ccccn1)C2 [Example 51, (2S)-3-hydroxy-2-phenyl-1-[5-(pyridine-2-sulfonyl)-1H,2H,3H,4H,5H,6H-pyrrolo[3,4-c]pyrrol-2-yl]propan-1-one] | 75 to 250 | 0.1 to 1 | 75 to 250 | 250 to 500 | ≤ 0.1 | 250 to 500 | 250 to 500 | ≤ 0.1 | 250 to 500
8 | O=C([C@H](CO)c1ccccc1)N1CC2=C(C1)CN(S(=O)(=O)c1ccc(C(F)(F)F)nc1)C2 [Example 52, (2S)-3-hydroxy-2-phenyl-1-(5-{[6-(trifluoromethyl)pyridin-3-yl]sulfonyl}-1H,2H,3H,4H,5H,6H-pyrrolo[3,4-c]pyrrol-2-yl)propan-1-one] | 75 to 250 | 0.1 to 1 | 75 to 250 | 75 to 250 | 1 to 40 | 250 to 500 | 75 to 250 | 0.1 to 1 | 75 to 250
9 | COCCC(=O)N1CC2=C(C1)CN(S(=O)(=O)c1ccc3c(c1)N(C)CCO3)C2 [Example 53, 3-methoxy-1-(5-((4-methyl-3,4-dihydro-2H-benzo[b][1,4]oxazin-6-yl)sulfonyl)-3,4,5,6-tetrahydropyrrolo[3,4-c]pyrrol-2(1H)-yl)propan-1-one] | 75 to 250 | > 40 | 75 to 250 | 75 to 250 | 1 to 40 | 75 to 250 | 75 to 250 | 0.1 to 1 | 75 to 250

Now from value to compound:

Row | activation at 1.54 µM (PKR(G332S)) [%] | AC50 (PKR(G332S)) [µM] | Emax (PKR(G332S)) [%] | activation at 1.54 µM (PKR(R510Q)) [%] | AC50 (PKR(R510Q)) [µM] | Emax (PKR(R510Q)) [%] | activation at 1.54 µM (PKR(wt)) [%] | AC50 (PKR(wt)) [µM] | Emax (PKR(wt)) [%] | SMILES
10 | 75 to 250 | > 40 | 75 to 250 | 75 to 250 | ≤ 0.1 | 75 to 250 | 75 to 250 | ≤ 0.1 | 75 to 250 | CC1(C)CNc2cc(S(=O)(=O)N3CC4=C(CN(C(=O)[C@H](CO)c5ccccc5)C4)C3)ccc2O1 [Example 32, (S)-1-(5-((2,2-dimethyl-3,4-dihydro-2H-benzo[b][1,4]oxazin-6-yl)sulfonyl)-3,4,5,6-tetrahydropyrrolo[3,4-c]pyrrol-2(1H)-yl)-3-hydroxy-2-phenylpropan-1-one]
11 | 75 to 250 | ≤ 0.1 | 75 to 250 | 250 to 500 | ≤ 0.1 | 250 to 500 | 75 to 250 | ≤ 0.1 | 75 to 250 | O=C([C@H](CO)c1ccccc1)N1CC2=C(C1)CN(S(=O)(=O)c1ccc3c(c1)NCCO3)C2 [Example 35, (S)-1-(5-((3,4-dihydro-2H-benzo[b][1,4]oxazin-6-yl)sulfonyl)-3,4,5,6-tetrahydropyrrolo[3,4-c]pyrrol-2(1H)-yl)-3-hydroxy-2-phenylpropan-1-one]
12 | 75 to 250 | 0.1 to 1 | 75 to 250 | 250 to 500 | 1 to 40 | 250 to 500 | 250 to 500 | 0.1 to 1 | 250 to 500 | O=C(C1COc2ccccc21)N1CC2=C(C1)CN(S(=O)(=O)c1ccc3ncsc3c1)C2 (stereo not drawn) [Example 43, (5-(benzo[d]thiazol-6-ylsulfonyl)-3,4,5,6-tetrahydropyrrolo[3,4-c]pyrrol-2(1H)-yl)(2,3-dihydrobenzofuran-3-yl)methanone]
13 | 75 to 250 | > 40 | 75 to 250 | 75 to 250 | > 40 | 75 to 250 | 75 to 250 | ≤ 0.1 | 75 to 250 | CN1CCOc2ccc(S(=O)(=O)N3CC4=C(CN(C(=O)C(CO)c5ccccc5)C4)C3)cc21 (stereo not drawn) [Example 46, 3-hydroxy-1-(5-((4-methyl-3,4-dihydro-2H-benzo[b][1,4]oxazin-6-yl)sulfonyl)-3,4,5,6-tetrahydropyrrolo[3,4-c]pyrrol-2(1H)-yl)-2-phenylpropan-1-one]
14 | 75 to 250 | ≤ 0.1 | 75 to 250 | 250 to 500 | ≤ 0.1 | 250 to 500 | 250 to 500 | ≤ 0.1 | 250 to 500 | O=C(C(CO)c1ccccc1)N1CC2=C(C1)CN(S(=O)(=O)c1ccc3ncsc3c1)C2 (stereo not drawn) [Example 48, 1-(5-(benzo[d]thiazol-6-ylsulfonyl)-3,4,5,6-tetrahydropyrrolo[3,4-c]pyrrol-2(1H)-yl)-3-hydroxy-2-phenylpropan-1-one]
